Data as given in US20140024527A1, “HERBICIDAL PYRAZINONES” (E I DU DE NEMOURS AND COMPANY, priority 2011, published 2014).

Experiments:
Assay in all cases: Test B postemergence
Assay type in all cases: in vivo
Details in all cases: scale 0 to 100
[1] = tested on: johnsongrass (Sorghum halepense)
Source text: (§1) Seeds of plant species selected from blackgrass (Alopecurus myosuroides), downy bromegrass (Bromus tectorum), green foxtail (Setaria viridis), Italian ryegrass (Lolium multiflorum), wheat (Triticum aestivum), wild oat (Avena fatua), galium (Galium aparine), bermudagrass (Cynodon dactylon), Surinam grass (Brachiaria decumbens), cocklebur (Xanthium strumarium), corn (Zea mays), large crabgrass (Digitaria sanguinalis), woolly cupgrass (Eriochloa villosa), giant foxtail (Setaria faberii), goosegrass (Eleusine indica), johnsongrass (Sorghum halepense), kochia (Kochia scoparia), lambsquarters (Chenopodium album), morningglory (Ipomoea coccinea), yellow nutsedge (Cyperus esculentus), pigweed (Amaranthus retroflexus), ragweed (Ambrosia elatior), soybean (Glycine max), velvetleaf (Abutilon theophrasti), barley (Hordeum vulgare), canarygrass (Phalaris minor), chickweed (Stellaria media), deadnettle (Lamium amplexicaule) and windgrass (Apera spica-venti) were planted in pots containing Redi-Earth® planting medium (Scotts Company, Marysville, Ohio, USA) comprising spaghnum peat moss, vermiculite, wetting agent and starter nutrients and treated postemergence with test compounds formulated in a non-phytotoxic solvent mixture which included a surfactant. Plants ranged in height from 2 to 18 cm (1- to 4-leaf stage).
(§2) Treated plants and controls were maintained in a greenhouse for 13 to 15 days, after which time all species were compared to controls and visually evaluated. Plant response ratings, summarized in Table B, are based on a scale of 0 to 100 where 0 is no effect and 100 is complete control. A dash (-) response means no test result.

[2] = tested on: lambsquarters (Chenopodium album)
Source text: as §1, §2

[3] = tested on: morningglory (Ipomoea coccinea)
Source text: as §1, §2

soybean (Glycine max) = tested on: soybean (Glycine max)
Source text: as §1, §2

[4] = tested on: wheat (Triticum aestivum)
Source text: as §1, §2

## COCCn1c(-c2cccc(F)c2)c(Cl)nc(C(=O)C2=C(O)CCCC2=O)c1=O [Compound 4, 5-chloro-6-(3-fluorophenyl)-3-[(2-hydroxy-6-oxo-1-cyclohexen-1-yl)carbonyl]-1-(2-methoxyethyl)-2(1H)pyrazinone]
[1]; 31 g ai/ha
  Plant response rating, Johnsongrass: 60
[1]; 62 g ai/ha
  Plant response rating, Johnsongrass: 60
[1]; 125 g ai/ha
  Plant response rating, Johnsongrass: 75
[1]; 250 g ai/ha
  Plant response rating, Johnsongrass: 85
[2]; 31 g ai/ha
  Plant response rating, Lambsquarters: 95
[2]; 62 g ai/ha
  Plant response rating, Lambsquarters: 98
[2]; 125 g ai/ha
  Plant response rating, Lambsquarters: 98
[2]; 250 g ai/ha
  Plant response rating, Lambsquarters: 100
[3]; 31 g ai/ha
  Plant response rating, Morningglory: 90
[3]; 62 g ai/ha
  Plant response rating, Morningglory: 95
[3]; 125 g ai/ha
  Plant response rating, Morningglory: 95
[3]; 250 g ai/ha
  Plant response rating, Morningglory: 95
Soybean (Glycine max); 31 g ai/ha
  Plant response rating, Soybean: 55
Soybean (Glycine max); 62 g ai/ha
  Plant response rating, Soybean: 60
Soybean (Glycine max); 125 g ai/ha
  Plant response rating, Soybean: 75
Soybean (Glycine max); 250 g ai/ha
  Plant response rating, Soybean: 75
[4]; 31 g ai/ha
  Plant response rating, Wheat: 5
[4]; 62 g ai/ha
  Plant response rating, Wheat: 20
[4]; 125 g ai/ha
  Plant response rating, Wheat: 30
[4]; 250 g ai/ha
  Plant response rating, Wheat: 35

## COCCn1c(-c2cc(F)cc(F)c2)c(Cl)nc(C(=O)C2=C(O)CCCC2=O)c1=O [Compound 6, 5-chloro-6-(3,5-difluorophenyl)-3-[(2-hydroxy-6-oxo-1-cyclohexen-1-yl)carbonyl]-1-(2-methoxyethyl)-2(1H)-pyrazinone]
[1]; 31 g ai/ha
  Plant response rating, Johnsongrass: 80
[1]; 62 g ai/ha
  Plant response rating, Johnsongrass: 80
[1]; 125 g ai/ha
  Plant response rating, Johnsongrass: 85
[1]; 250 g ai/ha
  Plant response rating, Johnsongrass: 100
[2]; 31 g ai/ha
  Plant response rating, Lambsquarters: 80
[2]; 62 g ai/ha
  Plant response rating, Lambsquarters: 98
[2]; 125 g ai/ha
  Plant response rating, Lambsquarters: 100
[2]; 250 g ai/ha
  Plant response rating, Lambsquarters: 100
[3]; 31 g ai/ha
  Plant response rating, Morningglory: 95
[3]; 62 g ai/ha
  Plant response rating, Morningglory: 100
[3]; 125 g ai/ha
  Plant response rating, Morningglory: 100
[3]; 250 g ai/ha
  Plant response rating, Morningglory: 100
Soybean (Glycine max); 31 g ai/ha
  Plant response rating, Soybean: 45
Soybean (Glycine max); 62 g ai/ha
  Plant response rating, Soybean: 65
Soybean (Glycine max); 125 g ai/ha
  Plant response rating, Soybean: 70
Soybean (Glycine max); 250 g ai/ha
  Plant response rating, Soybean: 95
[4]; 31 g ai/ha
  Plant response rating, Wheat: 45
[4]; 62 g ai/ha
  Plant response rating, Wheat: 45
[4]; 125 g ai/ha
  Plant response rating, Wheat: 50
[4]; 250 g ai/ha
  Plant response rating, Wheat: 60
